Here are results for 44 molecules from patent publication US5595998A, “Pyrazoloquinolines” (priority 1994, dated 1997).

The subject of one assay is ras p21 protein. Kind of assay: Ras p21 Nucleotide Exchange Assay (inhibition of ^3H-GDP binding to p21 ras). The class given is biochemical. The note with it: 50 μM. As to the method: Ras p21 Nucleotide Exchange Assay
The conditions for assay of nucleotide exchange inhibitors was adapted from Hall, A. and A. J. Self. 1986 J. Biol. Chem. 261: 10963-10965, which is hereby incorporated by reference.
0.5 μM ras p21 protein was incubated in 50 μls exhange buffer (50 mM Tris-HCl pH 7.5, 5 mM MgCl2, 50 mM NaCl and […]) on ice. Compounds dissolved in dimethyl sulfoxide (DMSO) were added to the desired concentration such that the final concentration of DMSO in the reaction mixture was 2% by weight. The reaction was incubated for 5 minutes on ice and then ^3 H-GDP (final concentration was 0.25 μM) was added.
Biological data are given throughout the specification in one of two forms: either as per cent inhibitions, or as the concentration at which the test compound causes 50% inhibition (IC50) of the binding of ^3 H-GDP to the p21 ras protein.
When the above assay was run at one concentration of the test compound, then the data was given as per cent inhibition at a particular concentration. […] When the assay was run at a series of concentrations, then the data were given as IC50 's.
Consider `COc1ccc2nc3nn([C@@H]4O[C@H](COC(=O)c5ccccc5)[C@@H](OC(=O)c5ccccc5)[C@@H]4OCc4ccccc4)c(C)c3c(Cl)c2c1`, for which the “ras p21 Assay (per cent inhibition)” value was found to be 32%.

The same assay, now with this note: 100 μM.
For the molecule `COc1ccc2nc3c(c(C)nn3[C@@H]3O[C@H](COC(=O)c4ccccc4)[C@H]4OC(C)(C)O[C@H]43)c(OCCN(C)C)c2c1`, the “inhibition in the ras p21 assay” value was determined as 59%.
The same measure, in the same setting: the figure for `COc1ccc2nc3c(c(C)nn3[C@@H]3O[C@H](COC(=O)c4ccccc4)[C@@H](OC(=O)c4ccccc4)[C@H]3OC(=O)c3ccccc3)c(OCCN(C)C)c2c1` is 12%.
Turning to `COc1ccc2nc3c(c(C)nn3[C@@H]3O[C@H](COC(=O)c4ccccc4)[C@@H](OC(=O)c4ccccc4)[C@H]3OC(=O)c3ccccc3)c(NCCN3CCOCC3)c2c1`, the “inhibition in the ras p21 assay” value is given as 86%.

The assay is the same for the next values; noted with them: read-out: IC50 in the ras p21 assay.
As a reminder, the IC50 is the midpoint of a concentration-inhibition curve. Consider `COc1ccc2nc3c(cc2c1)c(C)nn3[C@@H]1O[C@H](COC(=O)c2ccccc2)[C@@H](O)[C@H]1O`, for which the concentration for half-maximal inhibition (IC50) was found to be 50 µM.
In the case of `Cc1nn([C@@H]2O[C@H](COC(=O)c3ccccc3)[C@@H](OC(=O)c3ccccc3)[C@H]2OC(=O)c2ccccc2)c2nc3ccc(O)cc3c(Cl)c12`, the IC50 amounted to 10 µM.
Same read-out and setting: as for `COc1ccc2nc3c(c(C)nn3[C@@H]3O[C@H](C(O)CC(=O)c4ccccc4)[C@H]4OC(=S)O[C@H]43)c(Cl)c2c1` (stereo partly drawn) [Compound U], the figure is 1.5 µM.

The assay is the same for the next values; noted with them: table 1; at (100), unit not given.
Consider `COc1ccc2nc3nn([C@@H]4O[C@H](COC(=O)c5ccccc5)[C@H]5OC(=S)O[C@H]54)c(C)c3c(Cl)c2c1` [Cl O(CO)Ph OC(S)O], for which the “Ras p21 Assay (per cent inhibition)” value was 86%.
The same measure, in the same setting: the figure for `COc1ccc2nc3nn([C@@H]4O[C@H](COC(=O)c5ccccc5)[C@@H](OC(C)=O)[C@H]4OC(C)=O)c(C)c3c(Cl)c2c1` [Cl O(CO)Ph OCOCH3 OCOCH3] is 20%; for `COc1ccc2nc3nn([C@@H]4O[C@H](COC(=O)c5ccccc5)[C@@H](O)[C@H]4O)c(C)c3c(Cl)c2c1` [Cl O(CO)Ph OH OH] it is 49%; for `COc1ccc2nc3nn([C@@H]4O[C@H](CO)[C@@H](O)[C@H]4O)c(C)c3c(Cl)c2c1` [Cl OH OH OH] it is 0%.

The assay is the same for the next values; noted with them: table 1; concentration causing 50% inhibition of ^3H-GDP binding; read-out: Ras p21 Assay (IC50).
For the molecule `COc1ccc2nc3nn([C@@H]4O[C@H](COC(=O)c5ccccc5)[C@@H](OC(=O)c5ccccc5)[C@H]4OC(=O)c4ccccc4)c(C)c3c(Cl)c2c1` [Cl O(CO)Ph O(CO)Ph O(CO)Ph], the half-maximal inhibitory concentration (IC50) amounted to 10 µM.
Still for that read-out and setting: the figure for `COc1ccc2nc3nn([C@@H]4O[C@H](COC(=O)c5ccccc5)[C@@H](OC(=O)c5ccccc5)[C@H]4OC(=O)c4ccccc4)c(C)c3cc2c1` [H O(CO)Ph O(CO)Ph O(CO)Ph] is 8 µM.

Still in this assay, the particulars now being: table 2; 50 μM.
In the case of `COc1ccc2nc3c(c(C)nn3[C@@H]3O[C@H](COC(=O)CC(C)C)[C@@H](OC(=O)CC(C)C)[C@H]3OC(=O)CC(C)C)c(Cl)c2c1`, the “ras p21 Assay (per cent inhibition)” value was 33%.
Still for that read-out and setting: as for `COc1ccc2nc3c(c(C)nn3[C@@H]3O[C@H](CN)[C@H]4OC(C)(C)O[C@H]43)c(Cl)c2c1` [NH2 OC(CH3)2 O], the figure is 38%; as for `COc1ccc2nc3c(c(C)nn3[C@@H]3O[C@H](COC(=O)c4ccoc4)[C@@H](OC(=O)c4ccoc4)[C@H]3OC(=O)c3ccoc3)c(Cl)c2c1` [O(CO)-3-Fu O(CO)-3-Fu O(CO)-3-Fu], 49%; as for `COc1ccc2nc3c(c(C)nn3[C@@H]3O[C@H](CNC(=O)c4ccccc4)[C@H]4OC(C)(C)O[C@H]43)c(Cl)c2c1` [O(CO)PhNH OC(CH3)2 O], 56%.
Turning to `COc1ccc2nc3c(c(C)nn3[C@@H]3O[C@H](CNC(=O)c4ccccc4)[C@@H](O)[C@H]3O)c(Cl)c2c1` [O(CO)PhNH OH OH], the “ras p21 Assay (per cent inhibition)” value is listed as 24%.
The same measure, in the same setting: as for `COc1ccc2nc3c(c(C)nn3[C@@H]3O[C@H](COC(=O)c4cccnc4)[C@@H](OC(=O)c4cccnc4)[C@H]3OC(=O)c3cccnc3)c(Cl)c2c1` [O(CO)Py O(CO)Py O(CO)Py], the figure is 33%.

The assay is the same for the next values; noted with them: table 2; 100 μM.
As for `COc1ccc2nc3c(c(C)nn3[C@@H]3O[C@H](COC(=O)c4cc(C)ccc4C)[C@@H](OC(=O)c4cc(C)ccc4C)[C@H]3OC(=O)c3cc(C)ccc3C)c(Cl)c2c1`, the “ras p21 Assay (per cent inhibition)” value was 37%.
The same measure, in the same setting: the figure for `COc1ccc(C(=O)OC[C@H]2O[C@@H](n3nc(C)c4c(Cl)c5cc(OC)ccc5nc43)[C@H](OC(=O)c3ccc(OC)cc3)[C@@H]2OC(=O)c2ccc(OC)cc2)cc1` is 44%; for `COc1ccc2nc3c(c(C)nn3[C@@H]3O[C@H](COCc4ccccc4)[C@@H](OCc4ccccc4)[C@H]3OCc3ccccc3)c(Cl)c2c1` [CH2 Ph CH2 Ph CH2 Ph] it is 35%.
On the same count and under the same terms, as for `COc1ccc2nc3c(c(C)nn3[C@@H]3O[C@H](COC(=O)Cc4ccccc4)[C@@H](OC(=O)Cc4ccccc4)[C@H]3OC(=O)Cc3ccccc3)c(Cl)c2c1` [O(CO)CH2 Ph (CO)CH2 Ph O(CO)CH2 Ph], the figure is 62%; as for `COc1ccc2nc3c(c(C)nn3[C@@H]3O[C@H](COC(=O)c4ccccc4)[C@@H](OCc4ccccc4)[C@H]3OCc3ccccc3)c(Cl)c2c1` [O(CO)Ph CH2 Ph CH2 Ph], 53%; as for `COc1ccc2nc3c(c(C)nn3[C@@H]3O[C@H](COC(=O)c4ccccc4)[C@@H](OC(C)=O)[C@H]3OC(C)=O)c(Cl)c2c1` [O(CO)Ph O(CO)CH3 O(CO)CH3], 44%.
The same measure, in the same setting: as for `COc1ccc2nc3c(c(C)nn3[C@@H]3O[C@H](COC(=O)c4ccccc4)[C@H]4OC(c5ccccc5)O[C@H]43)c(Cl)c2c1` (stereo partly drawn) [O(CO)Ph OC(Ph)O], the figure is 41%; as for `COc1ccc2nc3c(c(C)nn3[C@@H]3O[C@H](COC(=O)c4ccccc4)[C@@H](O)[C@H]3O)c(Cl)c2c1` [O(CO)Ph OH OH], 16%.
`COc1ccc2nc3c(c(C)nn3[C@@H]3O[C@H](COC(=O)c4ccc([N+](=O)[O-])cc4)[C@@H](OC(=O)c4ccc([N+](=O)[O-])cc4)[C@H]3OC(=O)c3ccc([N+](=O)[O-])cc3)c(Cl)c2c1` [O(CO)Ph-4-NO2 (CO)Ph-4-NO2 O(CO)Ph-4-NO2]: the “ras p21 Assay (per cent inhibition)” value is reported as 59%.

The assay is the same for the next values; noted with them: table 2; concentration causing 50% inhibition of ^3H-GDP binding; read-out: ras p21 Assay (IC50).
Consider `COc1ccc2nc3c(c(C)nn3[C@@H]3O[C@H](COC(=O)c4ccccc4)[C@H]4OC(=S)O[C@H]43)c(Cl)c2c1` [(CO)Ph OC(S)O], for which the half-inhibitory concentration (IC50) is 15 µM.
The same measure, in the same setting: as for `COc1ccc2nc3c(c(C)nn3[C@@H]3O[C@H](C(O)CC(=O)c4ccccc4)[C@H]4OC(=S)O[C@H]43)c(Cl)c2c1` (stereo partly drawn) [Compound U], the figure is 1.5 µM.
On to `COc1ccc2nc3c(c(C)nn3[C@@H]3O[C@H](COC(=O)c4ccco4)[C@@H](OC(=O)c4ccco4)[C@H]3OC(=O)c3ccco3)c(Cl)c2c1` [O(CO)-2-Fu O(CO)-2-Fu O(CO)-2-Fu], for which the 50% inhibitory concentration (IC50) came to 10 µM.
Consider `COc1ccc2nc3c(c(C)nn3[C@H]3C=C[C@@H](COC(=O)c4ccccc4)O3)c(Cl)c2c1` [O(CO)Ph --], for which the IC50 came to 90 µM.
As to `COc1ccc2nc3c(c(C)nn3[C@@H]3O[C@H](COC(=O)c4ccccc4)[C@@H](OC(=O)c4ccccc4)[C@H]3OC(=O)c3ccccc3)c(Cl)c2c1` [O(CO)Ph O(CO)Ph O(CO)Ph], the IC50 was 10 µM.

Staying with this assay, now noted: table 3; 50 μM.
`COc1ccc2nc3c(c(C)nn3[C@@H]3O[C@H](C(O)CC(=O)c4ccccc4)[C@@H](O)[C@H]3O)c(Cl)c2c1` (stereo partly drawn): the “ras 21 assay (per cent inhibition)” value is 34%.
Turning to `COc1ccc2nc3c(c(C)nn3-c3ccc(/C=C/C(=O)c4ccccc4)o3)c(Cl)c2c1`, the “ras 21 assay (per cent inhibition)” value was 61%.
The same measure, in the same setting: the figure for `COc1ccc2nc3c(c(C)nn3[C@H]3C=C[C@@H](C(O)CC(=O)c4ccccc4)O3)c(Cl)c2c1` (stereo partly drawn) is 48%.

Staying with this assay, now noted: table 3; 100 μM.
Consider `COc1ccc2nc3c(c(C)nn3[C@@H]3O[C@H](/C=C/C(=O)c4ccccc4)[C@H]4OC(C)(C)O[C@H]43)c(Cl)c2c1`, for which the “ras 21 assay (per cent inhibition)” value was 53%.
The same measure, in the same setting: as for `COc1ccc2nc3c(c(C)nn3[C@H]3C=C[C@@H](CCC(=O)c4ccccc4)O3)c(Cl)c2c1`, the figure is 53%.
As to `COc1ccc2nc3c(c(C)nn3[C@H]3CC[C@@H](COC(=O)c4ccccc4)O3)c(Cl)c2c1`, the “ras 21 assay (per cent inhibition)” value amounted to 38%.

Staying with this assay, now noted: table 3; concentration causing 50% inhibition of ^3H-GDP binding; read-out: ras 21 assay (IC50).
On to `COc1ccc2nc3c(c(C)nn3[C@@H]3O[C@H](/C=C/C(=O)c4ccccc4)[C@@H](O)[C@H]3O)c(Cl)c2c1`, for which the IC50 was found to be 10 µM.
Take `COc1ccc2nc3c(c(C)nn3[C@H]3C=C[C@@H](/C=C/C(=O)c4ccccc4)O3)c(Cl)c2c1`: the IC50 was 35 µM.

The same assay, now with this note: table 4 (arabinose derivatives); 50 μM.
In the case of `COc1ccc2nc3c(c(C)nn3[C@@H]3O[C@H](COCc4ccccc4)[C@@H](OCc4ccccc4)[C@@H]3OCc3ccccc3)c(Cl)c2c1` [CH2 OBn OBn OBn Cl], the “p21 ras assay (per cent inhibition)” value was determined as 31%.
Consider `COc1ccc2nc3c(c(C)nn3[C@@H]3O[C@H](COC(=O)c4ccccc4)[C@@H](OC(=O)c4ccccc4)[C@@H]3OC(=O)c3ccccc3)c(Cl)c2c1` [CH2 OBz OBz OBz Cl], for which the “p21 ras assay (per cent inhibition)” value amounted to 17%.
Still for that read-out and setting: the figure for `COc1ccc2nc3c(c(C)nn3[C@@H]3O[C@H](CO)[C@@H](O)[C@@H]3O)c(Cl)c2c1` [CH2 OH OH OH Cl] is 18%.

The assay is the same for the next values; noted with them: table 4 (arabinose derivatives); concentration causing 50% inhibition of ^3H-GDP binding; read-out: p21 ras assay (IC50).
As to `COc1ccc2nc3c(cc2c1)c(C)nn3[C@@H]1O[C@H](COC(=O)c2ccccc2)[C@@H](OC(=O)c2ccccc2)[C@@H]1OC(=O)c1ccccc1` [CH2 OBz OBz OBz H], the IC50 was 10 µM.
